Laboratory results taken from patent US5382568A, “Decapeptide having dopamine stimulating activity” (Arizona Board of Regents, priority 1993, dated 1995).
Residues, ends and D or L forms follow the SMILES beside them. No end group written: not given here.

Columns and labels:
[1] = test system: serum LH; assay: Acute effect of intravenous injection on serum LH (radioimmunoassay); assay type: in vivo; settings: rats, intravenous 5.0 micrograms, as LH-RP-2 standard
Protocol: (§1) For intravenous peptide injections anesthetized rats were fitted surgically with indwelling intra-arterial cannulae 24 hours before the tests. The next day samples of arterial blood were withdrawn from the unanesthetized rats immediately before and after the injection of graded doses of the pineal antigonadotropin. Prolactin and LH were measured in the blood samples by standard double antibody radioimmunoassay with kits provided by the National Hormone and Pituitary Program. The acute effects of 5.0 micrograms of the antigonadotropin are illustrated in the table below:
(§2) Values for LH are expressed as the National Institutes of Health reference standard LH-RP-2. Means±S.E.M. are indicated (n=5)

[2] = test system: serum PRL; assay: Acute effect of intravenous injection on serum PRL (radioimmunoassay); assay type: in vivo; settings: rats, intravenous 5.0 micrograms
Protocol: as §1, §2

[3] = test system: rat hypothalamic median eminence strips; assay: Dopamine release from hypothalamic median eminence strips in vitro; settings: for Release of dopamine from rat hypothalamus in vitro (in words): median eminence strips
Protocol: Rat hypothalamic median eminence strips were rapidly dissected and placed in culture plates containing 100 μl of a Kreb's solution saturated with O2 in accord with the procedure described in Racke, K. and E. Muscholl, J. of Neurochemistry 46:745, 1986. The median eminence strips were maintained at 37° C. under 95% O2 /5%CO2 in a Dubnoff shaking incubator. The media were replaced after a ten minute pre-incubation period. 50 μl samples were taken at 30, 60 and 90 min of incubation for catecholamine determination, with replacement of the removed media. 20 μl of 0.1M perchloric acid were added to each sample before storage at -20°. Media contents of dopamine, norepinephrine and various indoleamine and catecholamine metabolites were determined by HPLC coupled with electrochemical detection in accord with the procedure described in Gregory, V. M., B. Larsen and B. Benson, J. of Chromatography 345:140-144,1985.

[4] = test system: anterior pituitary dopamine content; assay: Acute effect of a single subcutaneous injection on anterior pituitary dopamine content; assay type: in vivo; settings: mice; for Pituitary dopamine content: single subcutaneous injection of 25 nanograms
[5] = test system: male and female rats and mice; assay: Antigonadotropic effects after chronic daily subcutaneous injection; assay type: in vivo; settings: two to four weeks
Protocol: The neurotropic pineal antigonadotropin of the present invention was assayed in vivo, as is described below. Natural and synthetic analogs were injected into male and female rats and mice in graded doses. Antigonadotropic effects were assessed after a period of chronic daily subcutaneous injection in a variety of solvents/carriers, e.g. physiological saline or corn oil. […] Additionally, blood levels of the gonadal steroids (testosterone in males and estrogens in females) were reduced.

[6] = test system: pituitary secretion of LH and PRL; assay: Intravenous or intracerebroventricular injections: pituitary secretion of LH and PRL; assay type: in vivo

C[C@@H](O)[C@H](NC(=O)[C@H](CCCCN)NC(=O)[C@@H](NC(=O)[C@@H](NC(=O)[C@@H]1CCCN1C(=O)[C@H](Cc1ccccc1)NC(=O)[C@@H](N)CO)[C@@H](C)O)[C@@H](C)O)C(=O)N[C@@H](Cc1ccc(O)cc1)C(=O)N[C@@H](Cc1ccccc1)C(=O)N1CCC[C@H]1C(=O)O [PAG (1), NH2 -Ser-Phe-Pro-Thr-Thr-Lys-Thr-Tyr-Phe-Pro-COOH] (H-SFPTTKTYFP-OH)
Serum LH ([1]; postinjection time 0'): 0.25 ng/mL | Serum LH ([1]; postinjection time 15'): 0.21 ng/mL | Serum LH ([1]; postinjection time 30'): 0.15 ng/mL | Serum LH ([1]; postinjection time 45'): 0.10 ng/mL | Serum LH ([1]; postinjection time 60'): 0.14 ng/mL | Serum PRL ([2]; postinjection time 0'): 100 ± 11 % of Initial Control Value | Serum PRL ([2]; postinjection time 15'): 55 ± 6 % of Initial Control Value | Serum PRL ([2]; postinjection time 30'): 38 ± 6 % of Initial Control Value | Serum PRL ([2]; postinjection time 45'): 31 ± 4 % of Initial Control Value | Serum PRL ([2]; postinjection time 60'): 22 ± 5 % of Initial Control Value

C[C@@H](O)[C@H](NC(=O)[C@H](CCCCN)NC(=O)[C@@H](NC(=O)[C@@H](NC(=O)[C@@H]1CCCN1C(=O)[C@H](Cc1ccccc1)NC(=O)[C@@H](N)CO)[C@@H](C)O)[C@@H](C)O)C(=O)N[C@@H](Cc1ccc(O)cc1)C(=O)N[C@@H](Cc1ccccc1)C(=O)N1CCC[C@H]1C(=O)O [PAG (2), NH2 -Ser-Phe-Pro-Thr-Thr-Lys-Thr-Tyr-Phe-Pro-COOH] (H-SFPTTKTYFP-OH)
Serum LH ([1]; postinjection time 0'): 0.26 ng/mL | Serum LH ([1]; postinjection time 15'): 0.20 ng/mL | Serum LH ([1]; postinjection time 30'): 0.15 ng/mL | Serum LH ([1]; postinjection time 45'): 0.12 ng/mL | Serum LH ([1]; postinjection time 60'): 0.11 ng/mL | Release of dopamine from rat hypothalamus in vitro (in words) ([3]; listed as synthetic decapeptide): effectively stimulates the release of dopamine into the incubation medium | Serum PRL ([2]; postinjection time 0'): 100 ± 8 % of Initial Control Value | Serum PRL ([2]; postinjection time 15'): 44 ± 6 % of Initial Control Value | Serum PRL ([2]; postinjection time 30'): 30 ± 3 % of Initial Control Value | Serum PRL ([2]; postinjection time 45'): 25 ± 3 % of Initial Control Value | Serum PRL ([2]; postinjection time 60'): 32 ± 6 % of Initial Control Value

SFPTTKTYFP [PAG, NH2 -Ser-Phe-Pro-Thr-Thr-Lys-Thr-Tyr-Phe-Pro-COOH]
Anterior pituitary dopamine content (in words) ([4]; single injection of 25 nanograms): significant increase in anterior pituitary dopamine content | Pituitary dopamine content ([4]; postinjection time 0'): 0.539 ± 0.046 nanograms per mg of pituitary | Pituitary dopamine content ([4]; postinjection time 15'): 0.795 ± 0.064 nanograms per mg of pituitary | Pituitary dopamine content ([4]; postinjection time 30'): 1.801 ± 0.126 nanograms per mg of pituitary | Pituitary and blood levels of gonadotropins and prolactin [5]: reductions of pituitary and blood levels of gonadotropins and prolactin | Pituitary, gonadal and accessory reproductive organ weights [5]: significant reductions in pituitary, gonadal and accessory reproductive organ weights | Dopamine released into the incubation medium (accumulative) ([3]; 10^-5 M, incubation time 30'): 35.2 ± 7.6 pg/µL | Dopamine released into the incubation medium (accumulative) ([3]; 10^-5 M, incubation time 60'): 100.2 ± 13 pg/µL | Dopamine released into the incubation medium (accumulative) ([3]; 10^-5 M, incubation time 90'): 182.9 ± 13.7 pg/µL | Dopamine released into the incubation medium (accumulative) ([3]; 10^-7 M, incubation time 30'): 27.2 ± 2.1 pg/µL | Dopamine released into the incubation medium (accumulative) ([3]; 10^-7 M, incubation time 60'): 61.5 ± 5.3 pg/µL | Dopamine released into the incubation medium (accumulative) ([3]; 10^-7 M, incubation time 90'): 109.3 ± 10.8 pg/µL | Release of dopamine from rat hypothalamus in vitro (in words) ([3]; listed as pineal antigonadotropic decapeptide): stimulates the release of dopamine | Release of pituitary LH (pulsatile) ([6]; intracerebroventricular infusions): inhibited release of pituitary LH, reducing both the amplitude and frequency of pulsatile LH release into the blood | Pituitary secretion of LH and PRL ([6]; intravenous or intracerebroventricular injections): demonstrable inhibitory effects on pituitary secretion of LH and PRL
